Literature values in patent publication US11517536B2, “Pharmaceutical composition comprising pomalidomide” (SYNTHON B.V., priority 2016, dated 2022).

Nc1cccc2c1C(=O)N(C1CCC(=O)NC1=O)C2=O (centres unmarked) [Pomalidomide, 4-amino-2-(2,6-dioxopiperidin-3-yl)isoindole-1,3-dione]
solubility: low
solubility in water (drug substance, in water): practically insoluble
